Assay results published in BindingDB's records for doi:10.7270/Q2MS3R62 (Burnham Center For Chemical Genomics, 2007).

Target: Heat shock cognate 71 kDa protein (Homo sapiens, UniProt P11142)
Sequence (P11142 whole entry): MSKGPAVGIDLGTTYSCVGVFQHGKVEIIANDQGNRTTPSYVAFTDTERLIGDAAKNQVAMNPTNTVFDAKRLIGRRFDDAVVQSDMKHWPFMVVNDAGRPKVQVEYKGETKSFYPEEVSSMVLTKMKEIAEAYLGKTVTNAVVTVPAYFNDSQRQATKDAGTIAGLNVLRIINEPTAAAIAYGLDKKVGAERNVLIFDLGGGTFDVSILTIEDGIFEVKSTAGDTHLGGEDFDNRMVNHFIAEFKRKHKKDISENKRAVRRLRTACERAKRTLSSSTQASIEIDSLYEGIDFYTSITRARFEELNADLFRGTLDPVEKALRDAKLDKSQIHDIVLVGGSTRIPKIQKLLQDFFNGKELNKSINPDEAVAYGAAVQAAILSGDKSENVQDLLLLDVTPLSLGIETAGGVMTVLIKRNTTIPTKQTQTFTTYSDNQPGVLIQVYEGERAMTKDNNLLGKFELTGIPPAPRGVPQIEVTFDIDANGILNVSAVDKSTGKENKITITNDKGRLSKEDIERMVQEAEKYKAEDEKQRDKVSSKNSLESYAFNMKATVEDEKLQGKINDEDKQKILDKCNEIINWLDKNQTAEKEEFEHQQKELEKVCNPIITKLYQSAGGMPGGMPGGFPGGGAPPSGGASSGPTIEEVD

| IC50 | SMILES |
| --- | --- |
| 999 µM | CC(=O)N1CCC2(CC1)c1c(n[nH]c1C)OC(=N)C2C#N (configuration not stated) [6-azanyl-1'-ethanoyl-3-methyl-spiro[2H-pyrano[2,3-c]pyrazole-4,4'-piperidine]-5-carbonitrile] |
| 999 µM | C=c1[nH]n(-c2cccc(C(=O)O)c2)c(=O)c1=CC=Cc1ccco1 [SMR000113614] |
